According to US20180264074A1, “USE OF POLYMYXIN AS AN ANTIDOTE FOR INTOXICATIONS BY AMATOXINS” (UNIVERSIDADE DO PORTO, priority 2015, published 2018):

Key:
adult male mice (CD-1) [1] = assay: Acute study, animals sacrificed 24 h after α-amanitin: plasma aminotransferases, liver and kidney histology; format: in vivo
Procedure: (§1) For this purpose, adult male mice (CD-1) were used. Two experiments were performed to test polymyxin B effectiveness: polymyxin B was administered concomitantly with α-amanitin and four hours after administration of α-amanitin. Concomitant therapy consisted of 0.33 mg/kg of α-amanitin followed by 2.5 mg/kg of polymyxin B (one administration). In the second experiment, three 2.5 mg/kg administrations of polymyxin B were used in different time-points [4, 8 and 12 h, intraperitoneal (i.p.) administration] after one α-amanitin (dose 0.33 mg/kg i.p.) exposure, as to mimic the clinical scenario of late intoxication diagnosis; human intoxication is often only found hours later when symptoms become clinically relevant. […] Moreover 50% of animal exposed to polymyxin B 4, 8 and 12 h after α-amanitin survived […]. In order to validate and unveil some mechanisms involved, an acute study with the same doses and scheme was performed, with animals being sacrificed 24 h after α-amanitin administration.
FIG. 2. Plasma levels of Aspartate aminotransferase (AST) and alanine aminotransferase (ALT) in control, polymyxin B (3×2.5 mg/kg) (Pol), α-amanitin (Ama) and α-amanitin+polymyxin B (3×2.5 mg/kg) (Ama+Pol) groups. Results are presented as means±standard deviation (SD), and were obtained from 4-5 animals from each treatment. Statistical comparisons were made using Kruskal-Wallis ANOVA on Ranks followed by the Dunn's post hoc test (*p<0.05, Ama vs. control; #p<0.05, Ama vs. Ama+Pol).
FIG. 3. Liver histopathology by light microscopy. (A) Light micrograph (40×) from α-amanitin treated-group. The presence of cellular oedema (1), cytoplasmic vacuolization (2), interstitial inflammatory cell infiltration (3), as well as some necrotic zones can be seen (4). (B) Light micrograph (40×) from α-amanitin+polymixin B (3×2.5 mg/kg) group. […] Increase number interstitial inflammatory cell was still observed.
FIG. 4. Kidney histopathology by light microscopy (A) Light micrograph (10×) from α-amanitin-treated group. The presence of cytoplasmatic vacuolization (5), renal corpuscles with a wide capsular space, and thickened external Bowman capsule (6), as well as some necrotic zones can be seen (7). The presence large amounts of fibrin-related material cause enlargement and obstruction of distal tubules (8). (B) Light micrograph (10×) from α-amanitin+polymixin B (3×2.5 mg/kg) group.
For this purpose, adult male mice (CD-1) were used. Two experiments were performed to test polymyxin B effectiveness: polymyxin B was administered concomitantly with α-amanitin and four hours after administration of α-amanitin. Concomitant therapy consisted of 0.33 mg/kg of α-amanitin followed by 2.5 mg/kg of polymyxin B (one administration). In the second experiment, three 2.5 mg/kg administrations of polymyxin B were used in different time-points (4, 8 and 12 h, i.p. administration) after one α-amanitin exposure (0.33 mg/kg i.p dose), as to mimic the clinical scenario of late intoxication diagnosis; human intoxication is often only found hours later when symptoms become clinically relevant. […] Moreover, 50% of animals exposed to polymyxin B 4, 8 and 12 h after α-amanitin survived (FIG. 1). In order to validate and unveil some mechanisms involved, an acute study with the same doses and scheme was performed with polymyxin B 4, 8 and 12 h after α-amanitin administration. Animals were sacrificed 24 h after α-amanitin administration. […] The renal corpuscles appearance is heterogeneous, with a wide capsular space, and thickened external Bowman capsule. […] Marked atrophy and degeneration of distal tubules cells was also observed, and large amounts of fibrin-related material caused enlargement and obstruction of these tubules.

adult male mice (CD-1) [2] = format: in vivo
Procedure: as §1
FIG. 1. Survival curves after concomitant i.p. administration of 0.33 mg/kg of α-amanitin and polymyxin B (Ama+Pol— 2.5 mg/kg) and 3 administrations of polymyxin B (Ama+Pol— 3×2.5 mg/kg) at different time-points (4, 8 and 12 h, i.p. administration) after one α-amanitin (dose 0.33 mg/kg i.p.). Results are expressed in percent survival. Control tests were performed (Control), consisting of a saline-control treatment. A polymyxin treatment (Pol) was additionally performed. A treatment with α-amanitin (Ama) as also made.
For this purpose, adult male mice (CD-1) were used. Two experiments were performed to test polymyxin B effectiveness: polymyxin B was administered concomitantly with α-amanitin and four hours after administration of α-amanitin. Concomitant therapy consisted of 0.33 mg/kg of α-amanitin followed by 2.5 mg/kg of polymyxin B (one administration). In the second experiment, three 2.5 mg/kg administrations of polymyxin B were used in different time-points (4, 8 and 12 h, i.p. administration) after one α-amanitin exposure (0.33 mg/kg i.p dose), as to mimic the clinical scenario of late intoxication diagnosis; human intoxication is often only found hours later when symptoms become clinically relevant. […] Moreover, 50% of animals exposed to polymyxin B 4, 8 and 12 h after α-amanitin survived (FIG. 1). In order to validate and unveil some mechanisms involved, an acute study with the same doses and scheme was performed with polymyxin B 4, 8 and 12 h after α-amanitin administration. Animals were sacrificed 24 h after α-amanitin administration. […] The renal corpuscles appearance is heterogeneous, with a wide capsular space, and thickened external Bowman capsule. […]

[3] = 24 h after α-amanitin 0.33 mg/kg i.p., polymyxin B 3×2.5 mg/kg at 4, 8 and 12 h
[4] = 24 h after α-amanitin 0.33 mg/kg i.p., polymyxin B 3×2.5 mg/kg at 4, 8 and 12 h, listed as polymixin B

| Compound | kidney histology (light microscopy) (adult male mice (CD-1) [1]; [3]) | liver histology (light microscopy) (adult male mice (CD-1) [1]; [3]) | plasma aminotransferases (AST, ALT) (adult male mice (CD-1) [1]; [3]) | kidney histology (light microscopy) (adult male mice (CD-1) [1]; [4]) | liver histology (light microscopy) (adult male mice (CD-1) [1]; [4]) | hepatic and renal damage (histological and plasma data) (adult male mice (CD-1) [1]; 24 h after α-amanitin administration, same doses and scheme) | signs of injury or discomfort (adult male mice (CD-1) [2]; concomitant polymyxin B 2.5 mg/kg with α-amanitin 0.33 mg/kg, up to day 30) | animals that survived (adult male mice (CD-1) [2]; polymyxin B 3×2.5 mg/kg i.p. at 4, 8 and 12 h after α-amanitin 0.33 mg/kg i.p.) [%] | animals that survived until the 30th day (adult male mice (CD-1) [2]; α-amanitin 0.33 mg/kg i.p. followed by polymyxin B 2.5 mg/kg, one concomitant administration) [%] | day until which all animals died (adult male mice (CD-1) [2]; single dose of α-amanitin 0.33 mg/kg i.p., no antidote) [days] |
| --- | --- | --- | --- | --- | --- | --- | --- | --- | --- | --- |
| polymyxin B | protected against the occurrence of the above referred alterations, particularly the necrosis and the obstruction of distal tubules | significant reversion against α-amanitin-induced necrotic changes as well as the induced oedema and cytoplasmic vacuolization | totally reverted | oedema, cytoplasmatic vacuolization and necrosis, were significantly attenuated | oedema, cytoplasmatic vacuolization and necrosis, were significantly attenuated | protected against hepatic and renal damage caused by α-amanitin | without major signs of injury or discomfort | 50 | 100 | – |
| CC[C@H](C)[C@@H]1NC(=O)CNC(=O)[C@@H]2Cc3c([nH]c4cc(O)ccc34)[S@+]([O-])C[C@H](NC(=O)CNC1=O)C(=O)N[C@@H](CC(N)=O)C(=O)N1C[C@H](O)C[C@H]1C(=O)N[C@@H]([C@@H](C)[C@@H](O)CO)C(=O)N2 [α-amanitin] | – | – | – | – | – | – | – | – | – | ≤ 5 |
